From patent US12201618B2 (Biohaven Therapeutics Ltd., priority 2018, dated 2025)

Columns and labels:
[1] = taken with meals; cited from earlier work
[2] = test system: patients diagnosed with Alzheimer's disease of mild-to-moderate severity; experiment: T2 Protect AD Phase 2/3 trial: CDR-Sum of Boxes; assay type: in vivo, human; settings: for CDR01-Sum of Boxes Week 48 Model Estimates LSMean (SE): Week 48, change from baseline; for CDR01-Sum of Boxes Week 48 Model Estimates LSMean (SE) Difference: Week 48, placebo vs troriluzole
Description: The CDR-SOB (Hughes, Berg, Danziger, Coben, & Martin, 1982) is a validated composite rating of cognition and everyday functioning used in longitudinal AD research which incorporates both informant input and direct assessment of performance. It assesses through semi structured interview 3 cognitive domains including memory, orientation, and judgement/problem solving and 3 everyday functional domains including community affairs, home and hobbies and personal care. There are 5 levels of impairment from none CDR=0 to severe CDR=3. The individual domain scores are added to create a sum of the box scores.
(§1) The T2 Protect AD trial has been conducted, which is a Phase 2/3, randomized, double-blind, placebo-controlled study evaluating the efficacy and safety of troriluzole in patients diagnosed with Alzheimer's disease of mild-to-moderate severity (Mini-Mental State Examination [MMSE] scores of 14-24; mild: 20-24, moderate: 14-19).

[3] = test system: patients diagnosed with Alzheimer's disease of mild-to-moderate severity; experiment: T2 Protect AD Phase 2/3 trial: ADAS-Cog 11; assay type: in vivo, human; settings: for ADAS-Cog Total Score Week 48 Model Estimates LSMean (SE): Week 48, change from baseline; for ADAS-Cog Total Score Week 48 Model Estimates LSMean (SE) Difference: Week 48, placebo vs troriluzole
Description: (§2) The ADAS-Cog 11 evaluates memory (word recall, word recognition), reasoning (following commands), language (naming, comprehension), orientation, ideational praxis (placing a letter in an envelope) and constructional praxis (copying geometric designs). Ratings of spoken language, language comprehension, word finding difficulty, and ability to remember test instructions are also obtained. The test is scored in terms of errors, with higher scores reflecting poorer performance and greater impairment. Scores can range from 0 (best) to 70 (worse).
The primary efficacy endpoint is the within-participant change in ADAS-Cog 11 from baseline to week 48, compared between the treatment group and the placebo group.
as §2, with “11 (Rosen, Mohs, & Davis, 1984) is a structured scale that” for “11”
as §1

[4] = test system: patients diagnosed with Alzheimer's disease of mild-to-moderate severity; experiment: T2 Protect AD Phase 2/3 trial: neuropsychiatric inventory (NPI); assay type: in vivo, human; settings: after 48 weeks
Description: The NPI is a well-validated, reliable, multi-item instrument to assess psychopathology in AD dementia based on the results of an interview with the study partner (Cummings, 1997). The NPI evaluates both the frequency and severity of 10 neuropsychiatric features, including delusions, hallucinations, agitation/aggression, dysphoria, anxiety, euphoria, apathy, disinhibition, irritability and lability, and aberrant motor behavior, as well as evaluates sleep and appetite/eating disorders. Frequency assessments range from 1 (occasionally, less than once per week) to 4 (very frequently, once or more per day or continuously). Severity assessments range from 1 (mild) to 3 (severe). The score for each subscale is the product of severity and frequency and the total score is the sum of all subscales.
as §1

[5] = test system: patients diagnosed with Alzheimer's disease of mild-to-moderate severity; experiment: T2 Protect AD Phase 2/3 trial: volumetric hippocampal MRI; assay type: in vivo, human; settings: for Hippocampal Volume Change Week 48 Model Estimates LSMean (SE) Difference: Week 48, placebo vs troriluzole
Description: vMRI allows the in vivo assessment of brain structure volume and provides a measure of atrophy rate. […] Atrophy of the medial temporal lobe, including hippocampus and entorhinal cortex, has long been described in vMRI studies of AD. Hippocampal volume derived from MRI correlates with histological hippocampal volume and degree of neuronal loss and AD pathology, and entorhinal cortical thickness change appears to be an early and sensitive indicator of neurodegeneration associated with AD (Holland et al., 2009; Jack et al., 2004).
Participants will undergo vMRI scans of the brain at screening, week 24 and week 48 in order to assess for changes in brain volumes that may be associated with clinical change due to treatment with BHV-4157.
Volumetric MRI scans will use the same imaging protocol, which will include a localizer scan, a 3D T1weighted sagittal acquisition (MPRAGE or IR-SPGR), a T2-weighted FLAIR axial acquisition, a T2* gradient recalled echo axial acquisition for magnetic susceptibility, and a diffusion weighted axial acquisition to assess for restricted diffusion.
Images will be checked for image quality and adherence to scanning protocols. 3D T1-weighted datasets passing quality checks will be corrected for spatial distortion and for intensity variation. Screening and follow-up datasets for each participant will be spatially registered to one another using rigid-body registration followed by nonlinear registration and neuroanatomic parcellation to quantify whole-brain and subregional volumetric change on a patient-by patient basis.
Whole brain volume (WBV, excluding cerebellum), bilateral ventricular volume and bilateral hippocampal volume will be measured. Quantitative anatomical regional change (Quarc) will be used as the computational MR image processing application. Detail for the statistical computations is given in the Statistical Analytical Plan (SAP).
as §1

[6] = mild-to-moderate AD, all patients
[7] = mild-to-moderate AD, all patients, Week 48

## Nc1nc2ccc(OC(F)(F)F)cc2s1 [Riluzole, 6-(trifluoromethoxy)benzothiazol-2-amine]
[1]
  food effect on exposure: reduced exposure when taken with meals

## CN(CC(=O)Nc1nc2ccc(OC(F)(F)F)cc2s1)C(=O)CNC(=O)CN [Troriluzole]
[2]; Mild AD Patients Only
  CDR01-Sum of Boxes Week 48 Analysis Value Mean (SD): 7.1 (2.79)
  CDR01-Sum of Boxes Week 48 Analysis Value Median: 6.5
  CDR01-Sum of Boxes Week 48 Change from Baseline Mean (SD): 1.4 (2.06)
  CDR01-Sum of Boxes Week 48 Change from Baseline Median: 1.0
  CDR01-Sum of Boxes Week 48 Model Estimates LSMean (SE): 1.7 (0.29)
  CDR01-Sum of Boxes Week 48 Model Estimates LSMean (SE) Difference: −0.3 (0.40)
[2]; [6]
  CDR01-Sum of Boxes Week 48 Analysis Value Mean (SD): 8.3 (3.24)
  CDR01-Sum of Boxes Week 48 Analysis Value Median: 8.0
  CDR01-Sum of Boxes Week 48 Change from Baseline Mean (SD): 1.9 (2.37)
  CDR01-Sum of Boxes Week 48 Change from Baseline Median: 2.0
  CDR01-Sum of Boxes Week 48 Model Estimates LSMean (SE): 2.1 (0.21)
  CDR01-Sum of Boxes Week 48 Model Estimates LSMean (SE) Difference: −0.2 (0.28)
[3]; Mild AD Patients Only, Week 48
  ADAS-Cog Total Score Week 48 Analysis Value Mean (SD): 26.2 (8.22)
  ADAS-Cog Total Score Week 48 Analysis Value Median: 26.0
  ADAS-Cog Total Score Week 48 Change from Baseline Mean (SD): 3.9 (5.90)
  ADAS-Cog Total Score Week 48 Change from Baseline Median: 4.0
[3]; Mild AD Patients Only
  ADAS-Cog Total Score Week 48 Model Estimates LSMean (SE): 4.2 (0.76)
  ADAS-Cog Total Score Week 48 Model Estimates LSMean (SE) Difference: 0.7 (1.02)
[3]; mild AD, after 48 weeks, 95% CI: −1.4, 2.7, p-value=0.5233
  ADAS-Cog11 score LS mean change difference versus placebo: 0.7
[3]; mild AD, after 48 weeks, n=65
  LS mean change from baseline on the ADAS-Cog11 score: 4.2 points
[3]; [7]
  ADAS-Cog Total Score Week 48 Analysis Value Median: 30.0
  ADAS-Cog Total Score Week 48 Change from Baseline Mean (SD): 5.8 (7.40)
  ADAS-Cog Total Score Week 48 Change from Baseline Median: 6.0
[3]; mild-to-moderate AD, all patients, Week 48, 280 mg once daily
  ADAS-Cog Total Score Week 48 Analysis Value Mean (SD): 31.5 (10.82)
[3]; [6]
  ADAS-Cog Total Score Week 48 Model Estimates LSMean (SE): 6.7 (0.70)
  ADAS-Cog Total Score Week 48 Model Estimates LSMean (SE) Difference: 0.0 (0.93)
[4]; mild AD, 95% CI: −5.99, 1.78, p-value=0.286
  NPI score LS mean change difference versus placebo: −2.1
[4]; mild AD, n=62
  LS mean change from baseline on the NPI score: 2.1 points
[4]; mild-to-moderate AD, 95% CI: −4.08, 1.10, p-value=0.258
  NPI score LS mean change difference versus placebo: −1.5
[4]; mild-to-moderate AD, n=120
  LS mean change from baseline on the NPI score: 2.3 points
[5]; Mild AD Patients Only
  Hippocampal Volume Change Week 48 Analysis Value Mean (SD): −1.1 (1.61)
  Hippocampal Volume Change Week 48 Analysis Value Median: −0.9
  Hippocampal Volume Change Week 48 Model Estimates LSMean (SE): −1.1 (0.27)
  Hippocampal Volume Change Week 48 Model Estimates LSMean (SE) Difference: −0.5 (0.38)
[5]; mild AD, after 48 weeks, 95% CI: −1.2, 0.3, p-value=0.2240
  hippocampal volume LS mean percent deformation change difference versus placebo: −0.5%
[5]; mild AD, after 48 weeks, n=48
  LS mean percent deformation change from baseline hippocampal volume: −1.1%
[5]; [6]
  Hippocampal Volume Change Week 48 Analysis Value Mean (SD): −1.1 (1.50)
  Hippocampal Volume Change Week 48 Analysis Value Median: −0.9
  Hippocampal Volume Change Week 48 Model Estimates LSMean (SE): −1.1 (0.18)
  Hippocampal Volume Change Week 48 Model Estimates LSMean (SE) Difference: 0.0 (0.26)
